Laboratory results taken from paper PMC2759945, “Cellular transport of anti-inflammatory pro-drugs originated from a herbal formulation of Zingiber cassumunar and Nigella sativa” (Chinese Medicine, 2009).
In brackets after ≈: the same amount, converted by molar mass.

Assays:
[1] = Transport across Caco-2 cell monolayers, apical to basolateral; type: in vitro ADME, human; conditions: human, Caco-2, pH 7.4; for Papp at 100 min, 53 μM: read-out: apparent permeability coefficient Papp at 53 μM; for Papp at 100 min, 106 μM: read-out: apparent permeability coefficient Papp at 106 μM
Procedure: (§1) Caco-2 cells were maintained in a DMEM at pH7.4, supplemented with 10% fetal bovine serum, 2 mM L-glutamine, 1% non-essential amino acid solution and 0.1% penicillin-streptomycin solution in a humidified atmosphere (5% CO2, 95% air, at 37°C). Cells were grown until 60-70% confluence. Cells from passages 20-40 were used for all experiments. Cells were seeded on tissue culture polycarbonate membrane filters (pore size: 3.0 μm) in 6-well Transwell plates (Corning, USA) at a seeding density of 2 × 10^4cells/cm^2. Culture medium was added to both the donor and the acceptor compartments. Medium was changed every two days. Cells were left to differentiate for 15-21 days after seeding with monitoring of trans-epithelial electrical resistance (TEER) values with a Millicell electrical resistance system (Millipore, USA) and the value should be higher than 600Ω.cm^2.
(§2) Transport experiment across the Caco-2 cell monolayers at pH7.4 was performed. Caco-2 cell monolayers in Transwell (6-well) plates were used for transport studies when they were differentiated and the monolayer was intact, as checked by measuring TEER. Prior to the experiment, the cells were washed twice with phosphate buffered saline (PBS) and pre-equilibrated for one hour with HBSS buffered with 30 mM n-(2-hydroxyethyl) piperazine-n-(2-ethanosulfonic acid) (HEPES) at pH7.4. After medium was removed, the cells were treated with sample solutions (concentrations of 53 μM and 106 μM in HBSS at pH7.4) in an apical compartment. Samples (1 mL) were taken under sink conditions at 0, 5, 20, 40, 60, 80 and 100 minutes from the basolateral side and replaced with an equal volume of fresh HBSS solution. The amount of the compounds from the basolateral side was determined on a UV-spectrophotometer (Thermo Scientific, USA) at 228 nm. Results were expressed as cumulative transport as a function of time. Apparent permeability coefficient was calculated according to the following equation: […]
(§3) where Papp is the apparent permeability coefficient (cm/s), dQ/dt (μg/s) is the rate of appearance of sample on the basolateral side, A is the surface area of the monolayer (cm^2) and C0 (μg/mL) is the initial drug concentration in the donor compartment. All rate constants were obtained from the permeation profiles of each compound. Statistical significance was evaluated with one-way analysis of variance (one-way ANOVA). A value of P < 0.05 was considered statistically significant.

Caco-2 cell monolayers = assay: as above; type: in vitro ADME, human; conditions: for Papp at 53 μM / Papp at 106 μM: apical to basolateral, pH7.4, mean (SD), n = 3
Procedure: as §1, §2, §3

porcine liver esterase = assay: Enzyme hydrolysis by porcine liver esterase, monitored by HPLC; type: in vitro ADME; conditions: 10 μM, 37°C
Procedure: Compound 1 (2 mL, 10 μM solution) was pre-incubated at 37°C and 200 μL of esterase enzyme (porcrine liver, 750 units) was added. Samples (200 μL each) were taken at 5, 10, 20, 30 and 60 minutes and added to 200 μL of methanol. Mixtures were vortexed to stop enzymatic activity. Samples were then centrifuged for five minutes at 14,000 × g (Lab Essentials, USA). Supernatant was injected to the HPLC system for the determination of ester pro-drugs and compound D. This procedure was repeated for compounds 2 and 3.

[2] = Chemical hydrolysis in transport medium (HBSS); type: physicochemical; conditions: 53 μM and 106 μM in transport medium (HBSS pH7.4), stored at 4°C for 96 hours
Procedure: Solution of compound 1, 2 and 3 at 53 μM and 106 μM were prepared in Hank's balanced salt solution (HBSS) at pH7.4. All solutions were kept at 4°C for 96 hours and each solution was then analyzed by HPLC at 12, 24, 48, 72 and 96 hours to determine the hydrolysis product.

[3] = test system: Mycobacterium tuberculosis H37Ra; set-up: method as in PMID 17691048; conditions: cited from earlier work
[4] = test system: herpes simplex virus (HSV-1); set-up: method as in PMID 17691048; conditions: vero cell line; cited from earlier work
[5] = set-up: method as in PMID 17691048; conditions: human vero cell line, cited from earlier work
[6] = test system: carrageenan-induced rat paw edema; set-up: method as in doi:10.1055/s-2006-961309; conditions: compound D from a hexane extract of Z. cassumunar; cited from earlier work
[7] = test system: uterus of non-pregnant rat; set-up: method as in PMID 3671553; conditions: cited from earlier work
[8] = apical to basolateral direction

Compound: CCCCC/C=C\C/C=C\CCCCCCCC(=O)OCC/C=C/c1ccc(OC)c(OC)c1 [Compound 1, (E)-4-(3,4-dimethoxyphenyl)but-3-en-1-yl linoleate]
- Papp at 100 min, 53 μM [1]: 13.9 ×10⁻⁶ cm/s
- Papp at 100 min, 106 μM [1]: 14.3 ×10⁻⁶ cm/s
- hydrolysis during the transport across Caco-2 cell monolayers (Caco-2 cell monolayers): did not occur
- cumulative transport at 53 μM (Caco-2 cell monolayers; 53 μM, apical to basolateral direction): highest cumulative transport
- Papp at 53 μM (Caco-2 cell monolayers; 53 μM): 13.94 (0.60) 10^-6cm/s
- cumulative transport at 106 μM (Caco-2 cell monolayers; [8]): higher cumulative transport over other two fatty acid ester
- Papp at 106 μM (Caco-2 cell monolayers): 14.33 (0.17) 10^-6cm/s
- time in which the ester hydrolysis was completed (porcine liver esterase): ≤ 10 min
- time after which hydrolysis product compound D was detected by HPLC [2]: 24 h
- Minimal inhibitory concentration [3]: 200 µg/mL (≈ 425 µM)

Compound: CCCCCCCC/C=C\CCCCCCCC(=O)OCC/C=C/c1ccc(OC)c(OC)c1 [Compound 2, (E)-4-(3,4-dimethoxyphenyl)but-3-en-1-yl oleate]
- Papp at 100 min, 53 μM [1]: 9.45 ×10⁻⁶ cm/s
- Papp at 100 min, 106 μM [1]: 10.1 ×10⁻⁶ cm/s
- hydrolysis during the transport across Caco-2 cell monolayers (Caco-2 cell monolayers): did not occur
- Papp at 53 μM (Caco-2 cell monolayers; 53 μM): 9.45 (0.29) 10^-6cm/s
- Papp at 106 μM (Caco-2 cell monolayers): 10.08 (0.32) 10^-6cm/s
- time in which the ester hydrolysis was completed (porcine liver esterase): ≤ 10 min
- time after which hydrolysis product compound D was detected by HPLC [2]: 24 h
- Minimal inhibitory concentration [3]: 100 µg/mL (≈ 212 µM)
- anti-HSV-1 IC50 [4]: 42.6 µg/mL
- cytotoxicity ([5]; at anti-HSV-1 IC50): without cytotoxicity

Compound: CCCCCCCCCCCCCCCC(=O)OCC/C=C/c1ccc(OC)c(OC)c1 [Compound 3, (E)-4-(3,4-dimethoxyphenyl)but-3-en-1-yl palmitate]
- Papp at 100 min, 53 μM [1]: 7.48 ×10⁻⁶ cm/s
- Papp at 100 min, 106 μM [1]: 8.6 ×10⁻⁶ cm/s
- hydrolysis during the transport across Caco-2 cell monolayers (Caco-2 cell monolayers): did not occur
- Papp at 53 μM (Caco-2 cell monolayers; 53 μM): 7.48 (0.31)** 10^-6cm/s
- Papp at 106 μM (Caco-2 cell monolayers): 8.60 (0.55)** 10^-6cm/s
- time in which the ester hydrolysis was completed (porcine liver esterase): ≤ 10 min
- time after which hydrolysis product compound D was detected by HPLC [2]: 24 h
- Minimal inhibitory concentration [3]: 200 µg/mL (≈ 448 µM)
- cytotoxicity IC50 [5]: 38 µg/mL

Compound: COc1ccc(/C=C/CCO)cc1OC [Compound D, (E)-4-(3,4-dimethoxyphenyl)but-3-en-1-ol]
- Papp at 100 min, 53 μM [1]: 8.53 ×10⁻⁶ cm/s
- Papp at 100 min, 106 μM [1]: 16.4 ×10⁻⁶ cm/s
- Papp at 53 μM (Caco-2 cell monolayers; 53 μM): 8.53 (0.83)** 10^-6cm/s
- cumulative transport at 106 μM (Caco-2 cell monolayers; [8]): cumulative transport close to compound 3
- Papp at 106 μM (Caco-2 cell monolayers): 16.38 (0.61)** 10^-6cm/s
- effect on edema formation [6]: potent inhibitory effect on edema formation
- uterine relaxant effect [7]: dose dependent uterine relaxant effect
